Conditions: Cohort 1 200 mg QD

CC(C)NC(=O)COc1cccc(-c2nc(Nc3ccc4[nH]ncc4c3)c3ccccc3n2)c1 [Belumosudil, 2-{3-[4-(1H-indazol-5-ylamino)-2-quinazolinyl]phenoxy}-N-(propan-2-yl) acetamide]
Diarrhoea: Affected/At Risk: 6/17 | Diarrhoea: Affected/At Risk (%): (35.29%) | Dizziness: # Events: 0 | Dizziness: Affected/At Risk: 0/17 | Dizziness: Affected/At Risk (%): (0%) | Drug eruption: # Events: 0 | Drug eruption: Affected/At Risk: 0/17 | Drug eruption: Affected/At Risk (%): (0%) | Dry eye: # Events: 3 | Dry eye: Affected/At Risk: 2/17 | Dry eye: Affected/At Risk (%): (11.76%) | Dry skin: # Events: 1 | Dry skin: Affected/At Risk: 1/17 | Dry skin: Affected/At Risk (%): (5.88%) | Dyspepsia: # Events: 0 | Dyspepsia: Affected/At Risk: 0/17 | Dyspepsia: Affected/At Risk (%): (0%) | Dysphagia: # Events: 1 | Dysphagia: Affected/At Risk: 1/17 | Dysphagia: Affected/At Risk (%): (5.88%) | Dyspnoea exertional: # Events: 1 | Dyspnoea exertional: Affected/At Risk: 1/17 | Dyspnoea exertional: Affected/At Risk (%): (5.88%) | Dyspnoea: # Events: 2 | Dyspnoea: Affected/At Risk: 2/17 | Dyspnoea: Affected/At Risk (%): (11.76%) | Embolism: # Events: 1 | Embolism: Affected/At Risk: 1/17 | Embolism: Affected/At Risk (%): (5.88%) | Enamel anomaly: # Events: 0 | Enamel anomaly: Affected/At Risk: 0/17 | Enamel anomaly: Affected/At Risk (%): (0%) | Epidural lipomatosis: # Events: 1 | Epidural lipomatosis: Affected/At Risk: 1/17 | Epidural lipomatosis: Affected/At Risk (%): (5.88%) | Epstein-Barr virus infection: # Events: 1 | Epstein-Barr virus infection: Affected/At Risk: 1/17 | Epstein-Barr virus infection: Affected/At Risk (%): (5.88%) | Erectile dysfunction: # Events: 4 | Erectile dysfunction: Affected/At Risk: 2/17 | Erectile dysfunction: Affected/At Risk (%): (11.76%) | Eye irritation: # Events: 1 | Eye irritation: Affected/At Risk: 1/17 | Eye irritation: Affected/At Risk (%): (5.88%) | Eye pain: # Events: 0 | Eye pain: Affected/At Risk: 0/17 | Eye pain: Affected/At Risk (%): (0%) | Eye pruritus: # Events: 0 | Eye pruritus: Affected/At Risk: 0/17 | Eye pruritus: Affected/At Risk (%): (0%) | Fall: # Events: 2 | Fall: Affected/At Risk: 2/17 | Fall: Affected/At Risk (%): (11.76%) | Fatigue: # Events: 7 | Fatigue: Affected/At Risk: 6/17 | Fatigue: Affected/At Risk (%): (35.29%) | Flatulence: # Events: 0 | Flatulence: Affected/At Risk: 0/17 | Flatulence: Affected/At Risk (%): (0%) | Flushing: # Events: 0 | Flushing: Affected/At Risk: 0/17 | Flushing: Affected/At Risk (%): (0%) | Fungal infection: # Events: 1 | Fungal infection: Affected/At Risk: 1/17 | Fungal infection: Affected/At Risk (%): (5.88%) | Gamma-glutamyltransferase increased: # Events: 9 | Gamma-glutamyltransferase increased: Affected/At Risk: 4/17 | Gamma-glutamyltransferase increased: Affected/At Risk (%): (23.53%) | Gastric ulcer: # Events: 0 | Gastric ulcer: Affected/At Risk: 0/17 | Gastric ulcer: Affected/At Risk (%): (0%) | Gastrooesophageal reflux disease: # Events: 2 | Gastrooesophageal reflux disease: Affected/At Risk: 2/17 | Gastrooesophageal reflux disease: Affected/At Risk (%): (11.76%) | Generalised oedema: # Events: 1 | Generalised oedema: Affected/At Risk: 1/17 | Generalised oedema: Affected/At Risk (%): (5.88%) | Genital infection fungal: # Events: 0 | Genital infection fungal: Affected/At Risk: 0/17 | Genital infection fungal: Affected/At Risk (%): (0%) | Glaucoma: # Events: 0 | Glaucoma: Affected/At Risk: 0/17 | Glaucoma: Affected/At Risk (%): (0%) | Glucose urine present: # Events: 3 | Glucose urine present: Affected/At Risk: 2/17 | Glucose urine present: Affected/At Risk (%): (11.76%) | Graft versus host disease in gastrointestinal tract: # Events: 1 | Graft versus host disease in gastrointestinal tract: Affected/At Risk: 1/17 | Graft versus host disease in gastrointestinal tract: Affected/At Risk (%): (5.88%) | Gynaecomastia: # Events: 0 | Gynaecomastia: Affected/At Risk: 0/17 | Gynaecomastia: Affected/At Risk (%): (0%) | Haematuria: # Events: 1 | Haematuria: Affected/At Risk: 1/17 | Haematuria: Affected/At Risk (%): (5.88%) | Hair growth abnormal: # Events: 1 | Hair growth abnormal: Affected/At Risk: 1/17 | Hair growth abnormal: Affected/At Risk (%): (5.88%) | Headache: # Events: 4 | Headache: Affected/At Risk: 4/17 | Headache: Affected/At Risk (%): (23.53%) | Hodgkin's disease recurrent: # Events: 1 | Hodgkin's disease recurrent: Affected/At Risk: 1/17 | Hodgkin's disease recurrent: Affected/At Risk (%): (5.88%) | Hordeolum: # Events: 1 | Hordeolum: Affected/At Risk: 1/17 | Hordeolum: Affected/At Risk (%): (5.88%) | Hot flush: # Events: 1 | Hot flush: Affected/At Risk: 1/17 | Hot flush: Affected/At Risk (%): (5.88%) | Hyperglycemia: # Events: 2 | Hyperglycemia: Affected/At Risk: 2/17 | Hyperglycemia: Affected/At Risk (%): (11.76%) | Hyperhidrosis: # Events: 0 | Hyperhidrosis: Affected/At Risk: 0/17 | Hyperhidrosis: Affected/At Risk (%): (0%) | Hyperkalaemia: # Events: 7 | Hyperkalaemia: Affected/At Risk: 3/17 | Hyperkalaemia: Affected/At Risk (%): (17.65%) | Hypertension: # Events: 8 | Hypertension: Affected/At Risk: 5/17 | Hypertension: Affected/At Risk (%): (29.41%) | Hyperthyroidism: # Events: 0 | Hyperthyroidism: Affected/At Risk: 0/17 | Hyperthyroidism: Affected/At Risk (%): (0%) | Hypertriglyceridaemia: # Events: 0 | Hypertriglyceridaemia: Affected/At Risk: 0/17 | Hypertriglyceridaemia: Affected/At Risk (%): (0%) | Hyperuricaemia: # Events: 6 | Hyperuricaemia: Affected/At Risk: 1/17 | Hyperuricaemia: Affected/At Risk (%): (5.88%) | Hypoaesthesia: # Events: 2 | Hypoaesthesia: Affected/At Risk: 1/17 | Hypoaesthesia: Affected/At Risk (%): (5.88%) | Hypocalcaemia: # Events: 0 | Hypocalcaemia: Affected/At Risk: 0/17 | Hypocalcaemia: Affected/At Risk (%): (0%)
